Data set [1] relates to U2OS cells. The experiment in a line: Cytokinesis assay (live imaging, YFP-α-tubulin; H2B-RFP), U2OS. The settings on record: Homo sapiens, cytokinesis failure, read-out: Cytokinesis IC50. The format is cell-based.
Data set [2] deals with T1, Aurora A/TPX2^1–43 (Homo sapiens, UniProt O14965).
T1 sequence (O14965 1-403): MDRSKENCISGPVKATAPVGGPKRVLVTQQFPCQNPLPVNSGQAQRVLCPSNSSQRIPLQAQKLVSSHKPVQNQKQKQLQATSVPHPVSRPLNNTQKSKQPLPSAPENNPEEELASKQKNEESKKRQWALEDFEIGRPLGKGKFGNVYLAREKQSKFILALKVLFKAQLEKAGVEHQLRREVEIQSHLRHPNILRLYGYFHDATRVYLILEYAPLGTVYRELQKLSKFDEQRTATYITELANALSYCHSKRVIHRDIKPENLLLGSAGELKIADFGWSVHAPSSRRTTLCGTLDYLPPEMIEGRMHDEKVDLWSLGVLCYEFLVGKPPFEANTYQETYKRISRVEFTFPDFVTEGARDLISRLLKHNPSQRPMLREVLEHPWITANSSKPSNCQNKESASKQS
T1 sequence (Q9ULW0 1-43 partner limits assumed): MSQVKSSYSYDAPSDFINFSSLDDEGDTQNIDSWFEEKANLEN
The experiment in a line: Aurora A/TPX2^1–43 kinase assay (ADP-Glo).

Data set [3] relates to HeLa, RPE1, and U2OS cells. The experiment in a line: Cellular proliferation analysis (ATPLite, 24 h). Particulars: HeLa, RPE1, U2OS; 24 h (Figure 4D, Figure S2B).
Data set [4] concerns the target T2, full-length human Aurora A (Homo sapiens, UniProt O14965).
T2 sequence (O14965 1-403): T1 sequence (O14965 1-403)
The experiment in a line: Aurora A kinase assay (ADP-Glo, Kemptide substrate).

Where [5] appears, read: fold difference in potency calculated by dividing Ki values.

In the case of `CCn1cc(-c2ccnc3[nH]c(-c4cccc(CN(C)C)c4)cc23)c(-c2ccc(NC(=O)N(C)C)cc2)n1` [GSK1070916], the IC50 in data set [1] amounted to 6 nM.
In the case of `O=C(c1cccc(Cl)c1F)N1CCN(Cc2cccc(Nc3nccs3)n2)CC1` [MK-8745], the half-inhibitory concentration (IC50) amounted to 0.83 nM in data set [2] and 0.23 nM in data set [4]. The Ki in data set [2] (Aurora A TPX2^1-43 Ki (example dataset, Figure 2D), calculated from the example IC50) is 0.36 nM; in data set [2] (Aurora A-TPX2^1–43 Ki Mean ± SD, [ATP] = Km(ATP) (3 μM), 40 nM TPX2^1–43), 0.41 ± 0.06 nM; in data set [4] (Aurora A Ki Mean ± SD, [ATP] = Km(ATP) (35 μM), Ki calculated from IC50 with tight-binding equation), 0.06 ± 0.004 nM. Also, the “Selectivity ratio Aur A-TPX2^1–43 versus Aur B-INCENP^783–918” value in data set [2] (setting [5]) is reported as 162 fold. In addition, the “Toxicity / cytotoxicity (cellular proliferation)” value in data set [3] is given as “not cytotoxic”. Further, in data set [4] (setting [5]), the “Selectivity ratio Aur A versus Aur A-TPX2^1–43” value is on record as 6.3 fold. Further, in data set [4] (setting [5]), the “Selectivity ratio Aur A versus Aur B-INCENP^783–918” value is on record as 1030 fold.
